Data published in patent US10988449B2, “Isoxazole derivatives as nuclear receptor agonists and uses thereof” (IL DONG PHARMACEUTICAL CO., LTD., priority 2017, dated 2021).

Molecular target: T1, human FXR (Homo sapiens, UniProt Q96RI1)
T1 construct: expressed in transfected cells
T1 sequence (Q96RI1 1-486): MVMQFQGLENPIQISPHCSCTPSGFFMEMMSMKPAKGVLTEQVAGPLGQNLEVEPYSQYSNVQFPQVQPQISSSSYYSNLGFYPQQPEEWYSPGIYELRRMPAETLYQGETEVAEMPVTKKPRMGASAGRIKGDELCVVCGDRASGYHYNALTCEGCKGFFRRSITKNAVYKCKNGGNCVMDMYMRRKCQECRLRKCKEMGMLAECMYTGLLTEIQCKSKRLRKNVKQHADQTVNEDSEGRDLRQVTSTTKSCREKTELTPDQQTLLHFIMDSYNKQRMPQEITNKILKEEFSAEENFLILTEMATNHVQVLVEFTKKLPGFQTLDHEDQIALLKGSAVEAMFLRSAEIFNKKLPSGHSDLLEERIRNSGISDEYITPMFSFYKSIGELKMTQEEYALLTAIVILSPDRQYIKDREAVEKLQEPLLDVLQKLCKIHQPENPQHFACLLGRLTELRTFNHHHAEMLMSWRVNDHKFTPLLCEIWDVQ
Experiment: FXR reporter assay (cellular FXR activities)
Type: cell-based
Details: for EC50: FXR reporter cells, 24 hours incubation, luciferase, read-out: Reporter Cell EC50; for Emax: read-out: Emax (%) (GW4064 Emax = 100%)
Protocol: FXR reporter assay was performed to measure cellular FXR activities of the compounds in the present invention. FXR reporter cells with high expression level of human FXR were seeded into 96-well cell culture plates, and incubated for 1-2 hours at 37° C. under 5% CO2 atmosphere. The invented compounds diluted in DMSO with various concentrations were added to the 96-well cell culture plates, and they were incubated for 24 hours at 37° C. under 5% CO2 atmosphere. After incubation, we calculate EC50 by using luciferase substrate.

Row | SMILES | EC50 [µM] | Emax [%]
1 | O=C(Nc1cc(C#Cc2ccc(OCc3c(-c4c(Cl)cccc4Cl)noc3C3CC3)cc2Cl)cc(C(=O)O)c1)OCCO [Compound I-81, 3-((2-chloro-((5-cyclopropyl-3-(2,6-dichlorophenyl)isoxazol-4-yl)methoxy)phenyl)ethynyl)-5-(((2-hydroxyethoxy)carbonyl)amino)benzoic acid] | 0.2 to 1 | > 100
2 | O=C(O)c1cc(C#Cc2ccc(OCc3c(-c4c(Cl)cccc4Cl)noc3C3CC3)cc2Cl)cc(N2CCCC2)c1 [Compound I-56, 3-((2-chloro-4-((5-cyclopropyl-3-(2,6-dichlorophenyl)isoxazol-4-yl)methoxy)phenyl)ethynyl)-5-(pyrrolidin-1-yl)benzoic acid] | ≤ 0.02 | 96
3 | COC(=O)c1cccc(C#Cc2ccc(OCc3c(-c4c(Cl)cccc4Cl)noc3C3CC3)cc2Cl)c1 [Compound I-7, methyl 3-((2-chloro-4-((5-cyclopropyl-3-(2,6-dichlorophenyl)isoxazol-4-yl)methoxy)phenyl)ethynyl)benzoate] | > 1 | 85
4 | CCc1nc2c(C(=O)O)cc(C#Cc3ccc(OCc4c(-c5c(Cl)cccc5Cl)noc4C4CC4)cc3Cl)cc2o1 [Compound I-113, 6-((2-chloro-4-((5-cyclopropyl-3-(2,6-dichlorophenyl)isoxazol-4-yl)methoxy)phenyl)ethynyl)-2-ethylbenzo[d]oxazole-4-carboxylic acid] | 0.02 to 0.06 | 96
5 | CCN(CC)c1cc(C#Cc2ccc(OCc3c(-c4c(Cl)cccc4Cl)noc3C3CC3)cc2Cl)cc(C(=O)O)c1 [Compound I-24, 3-((2-chloro-4-((5-cyclopropyl-3-(2,6-dichlorophenyl)isoxazol-4-yl)methoxy)phenyl)ethynyl)-5-(diethylamino)benzoic acid] | 0.02 to 0.06 | > 100
6 | Cc1nc2cc(C#Cc3ccc(OCc4c(-c5c(Cl)cccc5Cl)noc4C4CC4)cc3Cl)cc(C(=O)O)c2nc1C [Compound I-109, 7-((2-chloro-4-((5-cyclopropyl-3-(2,6-dichlorophenyl)isoxazol-4-yl)methoxy)phenyl)ethynyl)-2,3-dimethylquinoxaline-5-carboxylic acid] | 0.02 to 0.06 | 100
7 | CN(C)c1cc(C#Cc2ccc(OCc3c(-c4c(Cl)cccc4Cl)noc3C3CC3)cc2Cl)ccc1C(=O)O [Compound I-23, 4-((2-chloro-4-((5-cyclopropyl-3-(2,6-dichlorophenyl)isoxazol-4-yl)methoxy)phenyl)ethynyl)-2-(dimethylamino)benzoic acid] | 0.06 to 0.2 | > 100
8 | O=C(O)c1cc(C#Cc2ccc(OCc3c(-c4c(Cl)cccc4Cl)noc3C3CC3)cc2Cl)cc(N2CCOC2=O)c1 [Compound I-83, 3-((2-chloro-4-((5-cyclopropyl-3-(2,6-dichlorophenyl)isoxazol-4-yl)methoxy)phenyl)ethynyl)-5-(2-oxooxazolidin-3-yl)benzoic acid] | 0.02 to 0.06 | 89
9 | O=C(O)c1ccc(C#Cc2ccc(OCc3c(-c4c(Cl)cccc4Cl)noc3C3CC3)cc2)cc1 [Compound I-1, 4-((4-((5-cyclopropyl-3-(2,6-dichlorophenyl)isoxazol-4-yl)methoxy)phenyl)ethynyl)benzoic acid] | > 1 | > 100
10 | CCc1cc(C#Cc2ccc(OCc3c(-c4c(Cl)cccc4Cl)noc3C3CC3)cc2Cl)cc(C(=O)O)c1 [Compound I-65, 3-((2-chloro-4-((5-cyclopropyl-3-(2,6-dichlorophenyl)isoxazol-4-yl)methoxy)phenyl)ethynyl)-5-ethylbenzoic acid] | 0.06 to 0.2 | 92
11 | Cc1nc2cc(C#Cc3ccc(OCc4c(-c5c(Cl)cccc5Cl)noc4C4CC4)cc3Cl)cc(C(=O)O)c2o1 [Compound I-103, 5-((2-chloro-4-((5-cyclopropyl-3-(2,6-dichlorophenyl)isoxazol-4-yl)methoxy)phenyl)ethynyl)-2-methylbenzo[d]oxazole-7-carboxylic acid] | ≤ 0.02 | > 100
12 | CCCc1nc2cc(C#Cc3ccc(OCc4c(-c5c(Cl)cccc5Cl)noc4C4CC4)cc3Cl)cc(C(=O)O)c2o1 [Compound I-105, 5-((2-chloro-4-((5-cyclopropyl-3-(2,6-dichlorophenyl)isoxazol-4-yl)methoxy)phenyl)ethynyl)-2-propylbenzo[d]oxazole-7-carboxylic acid] | ≤ 0.02 | > 100
13 | O=C(O)c1cccc(C#Cc2ccc(OCc3c(-c4c(Cl)cccc4Cl)noc3C3CC3)c(Cl)c2Cl)c1 [Compound I-69, 3-((2,3-dichloro-4-((5-cyclopropyl-3-(2,6-dichlorophenyl)isoxazol-4-yl)methoxy)phenyl)ethynyl)benzoic acid] | 0.2 to 1 | > 100
14 | CC(C)NCCCn1ccc2c(C#Cc3ccc(OCc4c(-c5c(Cl)cccc5Cl)noc4C4CC4)cc3Cl)cc(C(=O)O)cc21 [Compound I-93, 4-((2-chloro-4-((5-cyclopropyl-3-(2,6-dichlorophenyl)isoxazol-4-yl)methoxy)phenyl)ethynyl)-1-(3-(isopropylamino)propyl)-1H-indole-6-carboxylic acid] | 0.2 to 1 | 82
15 | O=C(O)c1cc(C#Cc2ccc(OCc3c(-c4c(Cl)cccc4Cl)noc3C3CC3)cc2Cl)cc2ncoc12 [Compound I-102, 5-((2-chloro-4-((5-cyclopropyl-3-(2,6-dichlorophenyl)isoxazol-4-yl)methoxy)phenyl)ethynyl)benzo[d]oxazole-7-carboxylic acid] | 0.2 to 1 | > 100
16 | C#Cc1ccc(OCc2c(-c3c(Cl)cccc3Cl)noc2C2CC2)cc1Cl [Compound I-5, 4-((3-chloro-4-ethynylphenoxy)methyl)-5-cyclopropyl-3-(2,6-dichlorophenyl)isoxazole] | 0.2 to 1 | 84
17 | O=C(O)c1cc(C#Cc2ccc(OCc3c(-c4c(Cl)cccc4Cl)noc3C3CC3)cc2Cl)cc(CN2CCC2)c1 [Compound I-43, 3-(azetidin-1-ylmethyl)-5-((2-chloro-4-((5-cyclopropyl-3-(2,6-dichlorophenyl)isoxazol-4-yl)methoxy)phenyl)ethynyl)benzoic acid] | 0.06 to 0.2 | > 100
18 | CC(C)c1cc(C#Cc2ccc(OCc3c(-c4c(Cl)cccc4Cl)noc3C3CC3)cc2Cl)cc(C(=O)O)c1 [Compound I-66, 3-((2-chloro-4-((5-cyclopropyl-3-(2,6-dichlorophenyl)isoxazol-4-yl)methoxy)phenyl)ethynyl)-5-isopropylbenzoic acid] | 0.06 to 0.2 | 92
19 | CN(C)CCn1ccc2c(C#Cc3ccc(OCc4c(-c5c(Cl)cccc5Cl)noc4C4CC4)cc3Cl)cc(C(=O)O)cc21 [Compound I-92, 4-((2-chloro-4-((5-cyclopropyl-3-(2,6-dichlorophenyl)isoxazol-4-yl)methoxy)phenyl)ethynyl)-1-(2-(dimethylamino)ethyl)-1H-indole-6-carboxylic acid] | 0.02 to 0.06 | 87
20 | Cc1c(N)cc(C(=O)O)cc1C#Cc1ccc(OCc2c(-c3c(Cl)cccc3Cl)noc2C2CC2)cc1Cl [Compound I-60, 3-amino-5-((2-chloro-4-((5-cyclopropyl-3-(2,6-dichlorophenyl)isoxazol-4-yl)methoxy)phenyl)ethynyl)-4-methylbenzoic acid] | 0.02 to 0.06 | 98
21 | CCOC(=O)Nc1cc(C#Cc2ccc(OCc3c(-c4c(Cl)cccc4Cl)noc3C3CC3)cc2Cl)cc(C(=O)O)c1 [Compound I-74, 3-((2-chloro-4-((5-cyclopropyl-3-(2,6-dichlorophenyl)isoxazol-4-yl)methoxy)phenyl)ethynyl)-5-((ethoxycarbonyl)amino)benzoic acid] | ≤ 0.02 | > 100
22 | O=C(O)c1cc(I)cc(C#Cc2ccc(OCc3c(-c4c(Cl)cccc4Cl)noc3C3CC3)cc2Cl)c1 [Compound I-67, 3-((2-chloro-4-((5-cyclopropyl-3-(2,6-dichlorophenyl)isoxazol-4-yl)methoxy)phenyl)ethynyl)-5-iodobenzoic acid] | 0.02 to 0.06 | > 100
23 | O=C(O)c1cccc(C#Cc2ccc(OCc3c(-c4c(Cl)cccc4Cl)noc3C3CC3)cc2Cl)c1F [Compound I-36, 3-((2-chloro-4-((5-cyclopropyl-3-(2,6-dichlorophenyl)isoxazol-4-yl)methoxy)phenyl)ethynyl)-2-fluorobenzoic acid] | 0.06 to 0.2 | 93
24 | O=C(O)c1cc(C#Cc2ccc(OCc3c(-c4c(Cl)cccc4Cl)noc3C3CC3)cc2Cl)c2ccn(Cc3ccncc3)c2c1 [Compound I-94, 4-((2-chloro-4-((5-cyclopropyl-3-(2,6-dichlorophenyl)isoxazol-4-yl)methoxy)phenyl)ethynyl)-1-(pyridin-4-ylmethyl)-1H-indole-6-carboxylic acid] | 0.06 to 0.2 | > 100
25 | CN(C)c1cc(C(=O)O)ccc1C#Cc1ccc(OCc2c(-c3c(Cl)cccc3Cl)noc2C2CC2)cc1Cl [Compound I-22, 4-((2-chloro-4-((5-cyclopropyl-3-(2,6-dichlorophenyl)isoxazol-4-yl)methoxy)phenyl)ethynyl)-3-(dimethylamino)benzoic acid] | 0.06 to 0.2 | 93
